This assay deals with Heat shock protein HSP 90-alpha (Homo sapiens) (UniProt P07900). The experiment in a line: tumor Hsp90 inhibitor potency, dose response (AID 712). The conditions noted are these: Hsp90 inhibition assay.

Molecules are shown by their SMILES. Active and inactive are the calls of the source. No rule for the calls is given here.

Regarding `O=C1c2ccccc2-c2onc3ccc(NCc4ccco4)c1c23`, the IC50 is less than 1.56 µM.

Regarding `COc1cc(N)c2nccc(Cl)c2c1`, the IC50 was > 50 µM (inactive).

Regarding `Cc1ccc(S(=O)(=O)N2CCC(C(=O)N[C@@H](C)C(=O)Nc3ccc4c(c3)OCO4)CC2)cc1`, the IC50 is 11.9 µM.

As for `COc1cc(NCCCC(C)=O)c2nccc(Cl)c2c1`, the IC50 is > 50 µM (inactive).

For the molecule `CCOC(=O)c1sc(NC(=O)CSc2nnc(-c3ccc(OC)cc3)n2CCOC)nc1C`, the IC50 is > 50 µM (inactive).

Regarding `COc1cc(C2CC(c3ccccc3O)=NN2)ccc1O` (configuration not stated), the IC50 is > 50 µM (inactive).

`COc1ccc(S(=O)(=O)Nc2ccc3c(c2)OCO3)cc1OC`: the IC50 entry was “inactive”.

Regarding `O=c1c(-c2ccc3c(c2)OCCO3)coc2c(CN3CCOCC3)c(O)ccc12`, the IC50 is > 50 µM (inactive).

For the molecule `CCOC(=O)Cc1c[nH]c2ccc(N)cc12`, the IC50 is > 50 µM (inactive).

Regarding `CCOc1ccc2ccccc2c1-c1cc(NS(=O)(=O)c2ccc(C)cc2)ccc1N`, the IC50 is > 50 µM (inactive).

Regarding `Nc1cccc2cc(O)ccc12`, the IC50 was > 50 µM (inactive).

With `O=S(=O)(Nc1ccc(O)c(-c2c(O)ccc3ccccc23)c1)c1ccccc1`, the IC50 is 13 µM.

For `Oc1cc(O)c2ncccc2c1`, the IC50 was > 50 µM (inactive).

For `O=C(O)c1cc(O)c2c(c1)C(=O)c1cccc(O)c1C2=O`, the IC50 was 3.34 µM.

`Nc1cc2c(c(O)c1O)C(=O)c1ccccc1C2=O`: the IC50 was less than 1.56 µM.

`CCc1cc(C(=O)Cc2ccc(F)cc2)c(O)cc1O`: the IC50 was > 50 µM (inactive).

With `Cn1ncnc2c(=O)n(C)c(=O)nc1-2`, the IC50 was 0.238 µM.

With `Cc1ccc(S(=O)(=O)Nc2ccc3oc(=O)sc3c2)c(C)c1`, the IC50 entry was “inactive”.

Turning to `O=C1C(c2c(O)[nH]c3ccc([N+](=O)[O-])cc23)=Nc2ccccc21`, the IC50 was less than 1.56 µM.

With `O=[N+]([O-])c1ccc(S(=O)(=O)Nc2cc(OCc3ccccc3)cc3cccnc23)cc1F`, the IC50 is > 50 µM (inactive).

With `COc1cc(NCCCC(C)=O)c2nccc(OCc3ccccc3)c2c1`, the IC50 is > 50 µM (inactive).

For the molecule `Nc1ccc(Cc2ccccc2)c(O)c1`, the IC50 is > 50 µM (inactive).

As for `N#Cc1ccc(CSc2nnc(Nc3ccccc3)s2)cc1`, the IC50 was > 50 µM (inactive).

On to `CCOc1ccc2ccccc2c1-c1cc(NS(=O)(=O)c2ccc(OC)c(OC)c2)ccc1N`, for which the IC50 is > 50 µM (inactive).

Regarding `O=S(=O)(Nc1ccc(Cl)cc1O)c1ccccc1`, the IC50 was > 50 µM (inactive).

For `CCn1c(CSc2nnc(-c3cccnc3)n2-c2ccccc2C)nc2cc(C(=O)O)ccc21`, the IC50 is 0.679 µM.

For the molecule `CCc1cc(-c2[nH]ncc2-c2ccc3c(c2)OCO3)c(O)cc1O`, the 50% inhibitory concentration (IC50) was 1.97 µM.

In the case of `O=[N+]([O-])c1ccc(O)c2cccnc12`, the IC50 is > 50 µM (inactive).

For the molecule `N#Cc1c(-c2ccco2)[nH]c(=O)[nH]c1=O`, the IC50 is > 50 µM (inactive).

Consider `O=S(=O)(NC1CCc2ccccc21)c1ccc(S(=O)(=O)N2CCCC2)cc1` (configuration not stated), for which the IC50 is > 50 µM (inactive).

Turning to `Nc1ccc(NS(=O)(=O)c2ccccc2[N+](=O)[O-])cc1-c1ccccc1O`, the IC50 was > 50 µM (inactive).

For `COc1ccc(-n2nc3c(c2NC(=O)c2ccc(Br)cc2)CS(=O)C3)cc1` (configuration not stated), the IC50 is > 50 µM (inactive).

On to `COc1cc(NCCCC(C)N)c2ncccc2c1` (configuration not stated), for which the IC50 is > 50 µM (inactive).

Take `O=C(O)c1ccccc1C1=Nc2ccc(O)cc2Oc2cc(O)ccc21`: the IC50 was 13 µM.

For `CC1=CC(C#N)(C#N)C(C#N)(C#N)C(c2ccccc2)N1` (configuration not stated), the IC50 is 7.38 µM.

With `O=C1c2ccccc2C(O)(O)C1(O)C1(O)C(=O)c2ccccc2C1(O)O` (configuration not stated), the IC50 is 5 µM.

For the molecule `CC(C)OC(=O)CSc1nc2ccccc2s1`, the IC50 is > 50 µM (inactive).

With `Cc1c(N=c2c(=O)c3ccccc3c2=O)c(=O)n(-c2ccccc2)n1C`, the IC50 was 20.6 µM.

As to `Cc1cccc(NC(=O)Cn2nnc(-c3cccs3)n2)c1C`, the IC50 is > 50 µM (inactive).

Take `CCc1ccc(CNc2ccc(N3CCN(C(C)=O)CC3)cc2)cc1`: the IC50 entry is “inactive”.

In the case of `CCCc1cc2c(cc1NS(=O)(=O)c1ccc(CCNC(C)=O)cc1)OCO2`, the IC50 is > 50 µM (inactive).

Take `COc1cccc(C(=O)NC2CC3CCCC(C2)N3CC(=O)Nc2ccccc2)c1` (configuration not stated): the IC50 was 15.7 µM.

Consider `CCSCCOC(=O)C1=C(C)NC(=O)NC1c1ccccc1` (configuration not stated), for which the IC50 is > 50 µM (inactive).

In the case of `Cc1occc1C(=O)NC(C)C(C)(C)C` (configuration not stated), the IC50 was > 50 µM (inactive).

On to `Nc1nc2c(s1)CCc1c-2cnn1-c1ccccc1`, for which the concentration for half-maximal inhibition (IC50) is 11.2 µM.

Regarding `CCCc1cc(-c2[nH]ncc2-c2ccc3c(c2)OCCCO3)c(O)cc1O`, the IC50 is 12.2 µM.

For `COc1cc(N)c2nccc(OCc3ccccc3)c2c1`, the IC50 is > 50 µM (inactive).

As for `Nc1nonc1N1CCCCC1`, the IC50 is > 50 µM (inactive).

In the case of `O=C(CSc1nnc(Cc2cc(=O)[nH]c(=O)[nH]2)n1-c1ccccc1)NCC1CCCO1` (configuration not stated), the IC50 was > 50 µM (inactive).

In the case of `O=S(=O)(Nc1ccc(O)c(-c2ccccc2O)c1)c1cc(Cl)ccc1Cl`, the IC50 is > 50 µM (inactive).

In the case of `CCOC(=O)NC1(NCc2ccccc2)Oc2ccccc2O1`, the IC50 entry is “inactive”.

With `O=C1c2ccccc2-c2onc3ccc(NCCCn4ccnc4)c1c23`, the IC50 is 0.28 µM.

For the molecule `C=CCn1c(N)c(C(=O)OCC(C)C)c2nc3ccccc3nc21`, the IC50 is > 50 µM (inactive).

As to `CC(=O)Oc1cc2c(C(=O)NCCN3CCOCC3)c(C)oc2c2ccccc12`, the IC50 is 19.7 µM.

Regarding `CC(=O)Nc1cnc2ccccc2n1`, the IC50 entry was “inactive”.

On to `Nc1cc(N)nc(SCCOc2ccccc2F)n1`, for which the IC50 was > 50 µM (inactive).

Take `O=C(NC1(O)C(=O)c2ccccc2C1=O)c1ccccc1`: the IC50 was 19.5 µM.

Consider `O=C(NC1(C(F)(F)F)Oc2ccc(Cl)cc2O1)N1CCC2(CC1)OCCO2` (configuration not stated), for which the IC50 was 23.4 µM.

For `COc1ccc(N2CSC3=C(C#N)C(c4ccc(OC)c(OC)c4)CC(=O)N3C2)c(OC)c1` (configuration not stated), the IC50 is > 50 µM (inactive).

Turning to `CCSc1nnc2c(n1)OC(c1ccc(C(=O)O)cc1)N(C(C)=O)c1ccccc1-2` (configuration not stated), the IC50 is > 50 µM (inactive).

Turning to `CCn1nnc(NC(=O)COc2cc(C)ccc2C(C)C)n1`, the IC50 is > 50 µM (inactive).

As for `CN(C)C=Nc1c(Br)cc(Br)c2nonc12`, the IC50 was > 50 µM (inactive).

With `COc1ccc(C(=O)c2c(C)n(C)c(=O)n(C)c2=O)cc1`, the IC50 is > 50 µM (inactive).

Turning to `Nc1ccc(Nc2nc3ccccc3s2)c(O)c1`, the IC50 was > 50 µM (inactive).

Regarding `Cn1c(=O)c2c(nc(Oc3ccc4c(c3)OCO4)n2Cc2ccc(Cl)cc2)n(C)c1=O`, the IC50 is > 50 µM (inactive).

For `N#C/C(=C\c1ccc(O)c(O)c1)C(=O)NCCCc1ccccc1`, the IC50 is 19.1 µM.

Regarding `Nc1cc(=O)[nH]c(SCC(=O)c2ccc3c(c2)OCO3)n1`, the IC50 is > 50 µM (inactive).

Take `Cc1ccc(S(=O)(=O)C(CCC(=O)N2CCOCC2)S(=O)(=O)c2ccc(C)cc2)cc1`: the IC50 is > 50 µM (inactive).

In the case of `COc1ccc(N2C(=O)CSC23C(=O)N2CCCc4cccc3c42)cc1` (configuration not stated), the IC50 is > 50 µM (inactive).

As for `O=C1C(C2=C(O)c3ccccc3C2=O)=Nc2ccccc21`, the IC50 is > 50 µM (inactive).

As for `CC(C)c1cc(Nc2cccc(O)c2)cc(C(C)C)c1O`, the IC50 was 27.2 µM.

`O=C(c1n[nH]c(=O)c2ccccc12)N1CCN(C2c3ccccc3-c3ccccc32)CC1`: the IC50 is > 50 µM (inactive).

With `CCOC(=O)c1cnc(SC2CCc3ccccc3C2=O)nc1N` (configuration not stated), the IC50 is 15.1 µM.

In the case of `Cc1ccc(S(=O)(=O)Nc2ccc(O)c(-c3ccccc3O)c2)cc1`, the IC50 was > 50 µM (inactive).

Consider `NCc1cc(S(=O)(=O)Nc2cc(O)cc3cccnc23)ccc1F`, for which the IC50 is > 50 µM (inactive).

In the case of `Oc1c(I)cc(Cl)c2cccnc12`, the IC50 was > 50 µM (inactive).

In the case of `CCOc1ccc(NCC(=O)Nc2ccc(C)cc2C)cc1`, the 50% inhibitory concentration (IC50) is 7.86 µM.

For `CCOc1cc(N2CCOCC2)c(OCC)cc1NC1=NCCCCC1`, the IC50 was 13 µM.

Regarding `Cc1nnc(NC(=O)CSc2nc(N)cc(N)n2)s1`, the IC50 was > 50 µM (inactive).

As to `COc1ccc2c(c1-c1cc(NS(=O)(=O)c3cccc([N+](=O)[O-])c3)ccc1N)OCO2`, the IC50 was > 50 µM (inactive).

Take `C[C@H]1CCCC(=O)CCCCCc2cc(O)cc(O)c2C(=O)O1`: the 50% inhibitory concentration (IC50) was 2.2 µM.

On to `Cc1ccc(S(=O)(=O)Nc2ccc(F)c(-c3c(O)ccc4c3OCO4)c2)cc1`, for which the IC50 is 25 µM.

Take `CCc1cc(C(=O)Cn2cnc3ccccc32)c(O)cc1O`: the IC50 is > 50 µM (inactive).

Consider `CC(=O)c1ccc(NC(=O)CSc2nnc(Cc3cccn3C)n2-c2ccc(F)cc2)cc1`, for which the IC50 was > 50 µM (inactive).

`CC(=O)CCCNc1c(OCc2ccccc2)ccc2c(C)cc(=O)oc12`: the IC50 is > 50 µM (inactive).

Regarding `CCOC(=O)c1c(C)[nH]c2ccc(O)cc12`, the IC50 is > 50 µM (inactive).

On to `COc1ccc(C2CC(c3ccccc3O)=NN2)cc1OC` (configuration not stated), for which the IC50 was > 50 µM (inactive).

In the case of `Nc1cccc2cccnc12`, the IC50 was > 50 µM (inactive).

For the molecule `Cc1[nH]c2c(N)cccc2c1C`, the IC50 is > 50 µM (inactive).

`NNc1ccc2c(Cl)cc(Cl)c(O)c2n1`: the IC50 is > 50 µM (inactive).

For the molecule `O=C(O)CCC(=O)NCc1ccc2[nH]c3c(c2c1)CCCC3`, the IC50 is > 50 µM (inactive).

Turning to `O=C(COc1ccccc1Cl)c1ccc(O)cc1O`, the IC50 was > 50 µM (inactive).

As for `O=[N+]([O-])c1ccc(NS(=O)(=O)c2ccccc2)c(O)c1`, the IC50 was > 50 µM (inactive).

For `Cc1nc(-c2c(-c3ccc(O)cc3O)noc2C(F)(F)F)cs1`, the IC50 is 16.5 µM.

`Cc1ccc(NC(=O)CC2SCCNC2=O)cc1Cl` (configuration not stated): the IC50 is > 50 µM (inactive).

With `O=C1C(c2nc3ccccc3s2)=C(O)c2ccccc21`, the IC50 is > 50 µM (inactive).

For the molecule `Nc1cccc2cnccc12`, the IC50 was > 50 µM (inactive).

For orientation: IC50 means the midpoint of a concentration-inhibition curve.

The values are drawn from PubChem BioAssay AID712 (Emory University Molecular Libraries Screening Center, 2007).
